Assays:
A375 = assay: In vitro anticancer activities of complexes (Experiment 2); format: cell-based, human; details: A375, 24 hours
Excerpt: (§1) The cell lines used in the experiments were obtained from Peking University.

A549 [1] = assay: as above; format: cell-based, human; details: A549, 24 hours
Excerpt: as §1

HeLa [2] = assay: as above; format: cell-based, human; details: 24 hours
Excerpt: as §1

MCF7 [3] = assay: as above; format: cell-based, human; details: MCF7, 24 hours
Excerpt: as §1

SW480 = assay: as above; format: cell-based, human; details: SW480, 24 hours
Excerpt: as §1

HepG2 = assay: as above; format: cell-based; details: HepG 2, 24 hours
Excerpt: as §1

human microglia CHEM5 = assay: as above; format: cell-based; details: CHEM 5, 24 hours
Excerpt: as §1

[4] = system: normal colonic epithelial cells NCM460; assay: as above; format: cell-based; details: NCM460, 24 hours
Excerpt: as §1

[5] = system: human umbilical vein endothelial cells HUVEC; assay: as above; format: cell-based; details: 24 hours
Protocol: as §1
The safety index (SI) was calculated according to the following equation:
^bSafety Index (SI)=IC50(HUVEC)/IC50(Hela)

[6] = system: HepG2 liver cancer cell lines; assay: Cytotoxicity, CCK-8 kit, multi-cell lines (Experiment 1); format: cell-based; details: HepG 2, 24 hours
[7] = system: MDA-MB-231 highly metastatic breast cancer cell line; assay: as above; format: cell-based; details: MDA-MB-231, 24 hours
[8] = system: DU145 prostate cancer cells; assay: as above; format: cell-based; details: DU145, 24 hours
[9] = system: HEK293 human renal epithelial cell line; assay: as above; format: cell-based; details: HEK293, 24 hours
[10] = system: COS7 renal epithelial cells; assay: as above; format: cell-based; details: COS7, 24 hours
Raw264.7 = assay: as above; format: cell-based; details: Raw264.7, 24 hours
HeLa tumors = assay: In vivo tumor suppression experiment; set-up: species or system nude mice; details: after 21 days of treatment, once every 2 days
Protocol: Nude mice carrying HeLa tumors were divided into 4 […], each with 8 mice. […] The dosage was […], and the administration frequency was once every 2 days. The volume of the tumor was calculated with the length and width of the tumor according to the following formula:
Tumor volume (mm^3)=½×length×width^2.
After 21 days, the nude mice of each group were died and dissected. The tumor inhibition was calculated according to the following formula: […]
in which Wc and Wt were the masses of the tumors in the control group and the experimental group, respectively.

[11] = Hematological analysis of liver and kidney function; format: in vivo, nude mice; details: blood samples after treatment
Excerpt: The research indicators included alanine aminotransferase (ALT), urea nitrogen (BUN), triglycerides (TG), creatine kinase (CK), aspartate aminotransferase (AST), creatinine (CREA), high Density lipoprotein (HDLC), and lactate dehydrogenase (LDH).
The kidney function was related to the blood indicators of BUN and CREA and the liver function. The results about alanine aminotransferase (ALT) and aspartate aminotransferase (AST) in the blood of nude mice were shown in FIG. 8.

[12] = H&E staining analysis of major organs; format: in vivo, nude mice; details: after treatment
Excerpt: Further, the parts such as heart, spleen, lung, liver, and kidney were subjected to the H&E staining analysis.

HeLa [13] = assay: Cytotoxicity, CCK-8 kit, multi-cell lines (Experiment 1); details: 24 hours
Protocol: (§2) The cells were cultured in a cell incubator containing 5% CO2 under the atmosphere of saturated steam at a constant temperature of 37° C. The medium used was a high-sugar Dulbecco's modified Eagle's medium containing 10% fetal bovine serum, 100 μg/mL penicillin and 100 U/mL streptomycin. The cells were grown in a six-well culture plate and passaged every other day. The cytotoxicity of the complex was evaluated by the CCK-8 kit, in which the cells were passed to a 96-well plate containing about 25,000 of cells and 200 µL of medium in each well. After the cells had grown stably and adherently, the medium was changed to complete mediums with different concentrations of the complex to be detected, and a 3-well parallel experiment was performed for each concentration. After culturing in the incubator for 24 hours, the medium was removed and the cells were washed with 100 L of PBS buffer (pH=7.4) for 3 times. Subsequently, 100 L mixture of 10% CCK-8 solution and 90% serum-free medium was added into both the test wells and the control wells, and then was placed in an incubator for culturing. After about 1 hour, the absorption of 450 nm wavelength light in the test and control wells were measured by using a microplate reader, and the cell viabilities (CV) under different concentrations of the complex were calculated according to the following formula: […]

[14] = system: A375 human malignant melanoma cell line; assay: as above; details: A375, 24 hours
Protocol: as §2

MCF7 [15] = assay: as above; details: MCF7, 24 hours
Protocol: as §2

A549 [16] = assay: as above; details: A549, 24 hours
Protocol: as §2

| SMILES | IC50 (A375) | IC50 (A549 [1]) | IC50 (HeLa [2]) | IC50 (MCF7 [3]) | IC50 (SW480) | IC50 (HepG2) | IC50 (human microglia CHEM5) | IC50 [4] | IC50 [5] | further results |
| --- | --- | --- | --- | --- | --- | --- | --- | --- | --- | --- |
| CC#[N+][Ga-3]123([N+]#CC)[O]c4cc(N5CCCC5)ccc4C=[N+]1C(C#N)=C(C#N)[N+]2=Cc1ccc(N2CCCC2)cc1[O]3.Cl [Complex 7] | 1.4 µM | 3.56 µM | 8.61 µM | 14.2 µM | 7.58 µM | 10.3 µM | 5.71 µM | 23.1 µM | 2.47 µM | – |
| CC#[N+][Ga-3]123([N+]#CC)[O]c4ccccc4C=[N+]1C(C#N)=C(C#N)[N+]2=Cc1ccccc1[O]3.Cl [Complex 4] | 2.2 µM | 1.16 µM | 75.3 µM | 134 µM | 0.59 µM | 43.5 µM | 1.64 µM | 27.7 µM | 6.37 µM | – |
| N.N.[Cl][Pt][Cl] [cisplatin, reference compound] | – | – | – | – | – | – | – | – | – | IC50 [6]: 5.3 ± 0.1 µM; IC50 [7]: 27 ± 1.3 µM; IC50 [8]: 2.7 ± 0.1 µM; IC50 [9]: 2 ± 0.1 µM; IC50 [10]: 6.7 ± 0.6 µM; IC50 (Raw264.7): 10.1 ± 1.2 µM; tumor inhibition (HeLa tumors): 29.9%; effects on liver and kidney function (blood indicators ALT, AST, BUN, CREA) [11]: acute toxicity against the liver and the kidney; H&E staining of liver and kidney [12]: liver edema and degeneration and kidney swelling; IC50 (HeLa [13]): 5.3 ± 0.3 µM; IC50 [14]: 3.4 ± 0.3 µM; IC50 (MCF7 [15]): 9.1 ± 0.9 µM; IC50 (A549 [16]): 9.4 ± 1.5 µM |
| C#CCN(C)c1ccc2c(c1)[O][Ga-3]13([N+]#CC)([N+]#CC)[O]c4cc(N(CC)CC)ccc4C=[N+]1C(C#N)=C(C#N)[N+]3=C2.Cl [Complex 2] | 0.83 µM | 2.29 µM | 6.35 µM | 5.29 µM | 2.2 µM | 8.19 µM | 2.82 µM | 4.26 µM | 1.88 µM | – |
| CC#[N+][Ga-3]123([N+]#CC)[O]c4cc(N(C)C)ccc4C=[N+]1C(C#N)=C(C#N)[N+]2=Cc1ccc(N(C)C)cc1[O]3.Cl [Complex 6] | 0.07 µM | 1.38 µM | 1.38 µM | 0.47 µM | 4.85 µM | 7.75 µM | 2.27 µM | 6.44 µM | 4.09 µM | – |
| CC#[N+][Ga-3]123([N+]#CC)[O]c4cc(N(C)CCCC)ccc4C=[N+]1C(C#N)=C(C#N)[N+]2=Cc1ccc(N(C)CCCC)cc1[O]3.Cl [Complex 13] | 0.9 µM | 2.72 µM | 21.5 µM | 1.74 µM | 4.1 µM | 20.9 µM | 2.28 µM | 20.6 µM | 3.5 µM | – |
| CC#[N+][Ga-3]123([N+]#CC)[O]c4cc5c(cc4C=[N+]1C(C#N)=C(C#N)[N+]2=Cc1cc2c(cc1[O]3)N(C)CCS2)SCCN5C.Cl [Complex 12] | 10.8 µM | 39.3 µM | 45.8 µM | 43.5 µM | 42.6 µM | 34.6 µM | 44.7 µM | 89.9 µM | 58.9 µM | – |
| C#CCN(C)c1ccc2c(c1)[O][Ga-3]13([N+]#CC)([N+]#CC)[O]c4cc(N(C)CC#C)ccc4C=[N+]1C(C#N)=C(C#N)[N+]3=C2.Cl [Complex 8] | 229 µM | 139 µM | 260 µM | 190 µM | 572 µM | 291 µM | 236 µM | 71 µM | 203 µM | – |
| CC#[N+][Ga-3]123([N+]#CC)[O]c4c(ccc5c4SCCN5C)C=[N+]1C(C#N)=C(C#N)[N+]2=Cc1ccc2c(c1[O]3)SCCN2C.Cl [Complex 10] | 91.2 µM | 124 µM | 87.7 µM | 61.7 µM | 451 µM | 72.7 µM | 51.9 µM | 322 µM | 332 µM | – |
| CC#[N+][Ga-3]123([N+]#CC)[O]c4cc(N(CC)CC)ccc4C=[N+]1c1ccncc1[N+]2=Cc1ccc(N(CC)CC)cc1[O]3.Cl [Complex 15] | 215 µM | 273 µM | 97.4 µM | 204 µM | 325 µM | 89.7 µM | 298 µM | 340 µM | 75.8 µM | – |
| CC#[N+][Ga-3]123([N+]#CC)[O]c4cc(N(CC)CC)ccc4C=[N+]1c1ccccc1[N+]2=Cc1ccc(N(CC)CC)cc1[O]3.Cl [Complex 9] | 1.37 µM | 1.22 µM | 12.4 µM | 34.8 µM | 4.89 µM | 46.1 µM | 1.81 µM | 33.5 µM | 9.33 µM | – |
| CC#[N+][Ga-3]123([N+]#CC)[O]c4ccccc4C=[N+]1c1ccccc1[N+]2=Cc1ccccc1[O]3.Cl [Complex 14] | 24 µM | 76.5 µM | 19.5 µM | 53 µM | 257 µM | 38.6 µM | 65.1 µM | 212 µM | 163 µM | – |

Source: patent publication US20210253603A1, “MAIN GROUP METAL COMPLEX AND ITS PREPARATION METHOD AND USE” (PEKING UNIVERSITY, priority 2018, published 2021)
